Values of other authors, collected in patent publication US12233088B2 (Alexion Pharmaceuticals, Inc., priority 2017, dated 2025).

System: patients with Wilson's disease
Conditions: cited from earlier work; for patients with worsening of neurological symptoms on initiation of treatment: reported

Row | Compound | mean time to neurological worsening from initiation (Litwin et al.) [months] | patients with early neurological worsening, n (%) (of 42 patients with neurological Wilson's disease, Litwin et al.) | patients with worsening of neurological symptoms on initiation of treatment | children with gastrointestinal adverse events (Polish cohort, Wiernicka et al.) [%] | patients who discontinued treatment because of adverse events (retrospective study) [%]
1 | CC(C)(S)[C@@H](N)C(=O)O [penicillamine, D-penicillamine] | 2.3 | 12 (29%) | approximately 25% |  | 
2 | NCCNCCNCCN [trientine] |  |  | approximately 25% |  | 
3 | [Zn] [zinc] |  |  |  | 40 | 11
